The record followed here is paper PMC7281472, “CYC31, A Natural Bromophenol PTP1B Inhibitor, Activates Insulin Signaling and Improves Long Chain-Fatty Acid Oxidation in C2C12 Myotubes” (Marine Drugs, 2020).

Molecules are shown by their SMILES.

The assay addresses T1, protein tyrosine phosphatase 1B (PTP1B) (Homo sapiens, UniProt P18031).
T1 construct: gene PTPN1; PTP1B1-321
T1 sequence (P18031 1-321): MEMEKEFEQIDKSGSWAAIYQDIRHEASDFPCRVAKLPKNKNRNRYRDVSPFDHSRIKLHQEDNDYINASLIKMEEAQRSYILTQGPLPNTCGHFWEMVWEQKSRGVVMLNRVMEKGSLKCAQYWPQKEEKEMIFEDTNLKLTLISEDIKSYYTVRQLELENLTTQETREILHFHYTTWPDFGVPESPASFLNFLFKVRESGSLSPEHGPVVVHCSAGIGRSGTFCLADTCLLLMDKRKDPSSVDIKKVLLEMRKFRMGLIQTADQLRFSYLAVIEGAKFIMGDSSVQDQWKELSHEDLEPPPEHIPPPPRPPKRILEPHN
Nature of the assay: pNPP hydrolysis assay with recombinant human PTP1B, absorbance at […] nm. The format is biochemical.

Take `Oc1cc(Cc2cc(O)c(O)c(Br)c2Cc2cc(O)c(O)c(Br)c2Br)c(Br)c(Br)c1O` [CYC31, 3-bromo-4,5-Bis(2,3-dibromo-4,5-dihydroxybenzyl)-1,2-benzenediol]: the “pNPP hydrolysis assay with recombinant human PTP1B, absorbance at 405 nm” value was “As shown in Figure 1B, PTP1B was significantly inactivated by CYC31 in a concentration-dependent manner”.
